By IC50 is commonly meant the concentration needed to halve the response being measured. Low readings indicate higher potency, high ones lower potency.

The results in this text go back to patent publication US7807673B2, “2-pyrimidinyl pyrazolopyridine ErbB kinase inhibitors” (GlaxoSmithKline LLC, priority 2005, dated 2010).

One assay addresses T1, ErbB2 or EGFR.
T1 construct: enzymes purified from a baculovirus expression system
Put plainly: ErbB enzyme substrate phosphorylation assay (HTRF), Method B (enzyme pre-incubated with compound 1 hour). It counts as biochemical. Particulars: Table 1, enzyme Method B: enzyme mix incubated with compound 1 hour at 20° C., reaction started with substrate mix; class over ErbB2 or EGFR. The method, then: Compounds of the present invention were tested for EGFR, ErbB-2, and ErbB-4 protein tyrosine kinase inhibitory activity in substrate phosphorylation assays using enzymes purified from a baculovirus expression system. Reagent production was conducted essentially as described in Brignola, P. S., et al, (2002) J. Biol. Chem. 277(2): 1576-1585.
The method measures the ability of the isolated enzyme to catalyse the transfer of the gamma-phosphate from ATP onto the tyrosine residue of a biotinylated synthetic peptide referenced “Peptide C” in Brignola, P. S., et al, (2002) J. Biol. Chem. 277(2):1576-1585. The extent of tyrosine phosphorylation was measured using an anti-phosphotyrosine antibody, and quantified by homogenous time-resolved fluorescence (HTRF).
Reactions were performed in black 384-well polystyrene flat-bottom plates in a final volume of 20 μl. Assays were performed by adding 10 μl of each of the following solutions, substrate Mix and enzyme mix: The Substrate mix contained 100 mM 3-[N-morpholino]propanesulfonic acid (MOPS) (pH 7.5), 2 mM MnCl2, 20 μM ATP, 0.01% Tween-20, 0.1 mg/mL (BSA), 0.8 uM peptide substrate, and 1 mM dithiothreitol. The enzyme mix contained 100 mM MOPS (pH7.5); 0.01% Tween-20; 0.1 mg/mL BSA, and either 0.8 nM EGFR, 10 nM ErbB2, or 1 nM ErbB4
During the course of these studies, two separate methods have been used to measure the potency of compounds. In Method A, the substrate mix was added to the compound plates first, then the reaction was started by adding the enzyme mix. In Method B, the enzyme mix was added to the compound plates and the plates were incubated at 20° C. for 1 hour. The reactions were then started by adding the substrate mix.
After initiating the reaction with either method describe above, the reactions were allowed to proceed for 90 minutes at 20° C. The reactions were then terminated by the addition of 20 μl 100 mM EDTA to each well. 40 μl/well of HTRF detection mix were added to the assay plates. The final concentrations of the detection reagents were: 100 mM HEPES (pH7.5), 0.1 mg/mL BSA, 15 nM streptavidin-labeled allophycocyanin (PerkinElmer), and 1 nM europium-labeled anti-phosphotyrosine antibody (PerkinElmer). Assay plates were left unsealed and were counted in a Wallac Multilabel Counter 1420 (PerkinElmer).
Compounds under analysis were dissolved in Me2SO to 1.0 mM and serially diluted 1 to 3 with Me2SO through twelve dilutions. 1 μl of each concentration was transferred to the corresponding well of an assay plate. This creates a final compound concentration range from 0.00027 to 47.6 μM.
The data for dose responses were plotted as % Inhibition calculated with the data reduction formula 100*(1−(U1−C2)/(C1−C2)) versus concentration of compound where U is the unknown value, C1 is the average control value obtained for 4.76% DMSO, and C2 is the average control value obtained for 0.035 M EDTA. Data were fitted with a curve described by: y=((Vmax*x)/(K+x))+Y2 where Vmax is the upper asymptote, Y2 is the Y intercept, and K is the IC50. The results for each compound were recorded as pIC50s, calculated as follows: pIC50=−Log 10(K)
(Time-resolved FRET reads energy transfer from a long-lived donor to a nearby acceptor.)

The next assay concerns Colo205 tumor cell lines. Put plainly: Celltiter Glo growth inhibition assay (cellular Method B). The following applies: Homo sapiens, COLO 205, 72 h, Table 3, Method B Celltiter Glo, 3 days. It is filed as cell-based. The method, then:
(§1) Human breast tumor cells (BT474) were cultured in RPMI, (Invitrogen, 22400) containing 10% fetal bovine serum (FBS). Human head and neck tumor cells (HN5) were cultured in low glucose DMEM (Invitrogen, 12320) containing 10% FBS. Human colon tumor cells (Colo205) were cultured in DMEM (Invitrogen, 10564) containing 10% FBS. All cell lines were maintained at 37° C. in a humidified 5% CO2, 95% air incubator. Cells were harvested using trypsin/EDTA, counted using a haemocytometer, and plated in 30 microliters of the appropriate media described above, at the following densities, in a half area, black-walled, 96-well tissue culture plate (Corning 3882): BT474 3,000 cells/well, HN5 500 cells/well and Colo205 cells, 3,000 cells/well. The next day, compounds were diluted in DMEM containing 100 mg/ml gentamicin, from 10 mM stock solutions in DMSO. 30 microliters/well of these dilutions were added to the 30 microliters/well of media currently on the cell plates. Medium containing 0.6% DMSO was added to control wells. The final concentration of DMSO in all wells was 0.3%. Cells were incubated at 37° C., 5% CO2 for 3 days. Cell biomass was estimated using Celltiter Glo (Promega G7571). Briefly, plates were removed from the incubator and allowed to equilibrate to rt for 30 minutes. 60 microliters of Celltiter Glo reagent were added to each well of the treated cells and plates were shaken on an orbital plate shaker for 2 min. Plates were incubated without shaking for 30 more min and read in a luminometer with an integration time of 0.5 seconds per well. Percent inhibition of cell growth was calculated relative to vehicle treated control wells. Concentration of compound that inhibits 50% of vehicle control cell growth (IC50) was interpolated using nonlinear regression (Levenberg-Marquardt) and the equation, y=Vmax*(1−(x/(K+x)))+Y2, where “K” was equal to the IC50.

Assay [1] has as its system BT474 and HN5 tumor cell lines. The description is as above. It counts as cell-based. Particulars: Homo sapiens, BT-474, 72 h; Table 2, Method B Celltiter Glo, 3 days; class over BT474 and HN5. The method, then:
as §1
Background: Cellular ATP, detected with luciferase, serves as a proxy for viable cell number.

`O=C(Cc1ccsc1)Nc1cccc(-c2nn3ccccc3c2-c2ccnc(Nc3cccc(-c4cnco4)c3)n2)c1` [Example 17, N-{3-[3-(2-{[3-(1,3-Oxazol-5-yl)phenyl]amino}-4-pyrimidinyl)pyrazolo[1,5-a]pyridin-2-yl]phenyl}-2-(3-thienyl)acetamide]: on ErbB2 or EGFR, the “Activity (Method)” value is on record as “+++ (B) (at least one pIC50 measurement of greater than 7 against either ErbB2 or EGFR)”. Also, the IC50 (in the assay on Colo205 tumor cell lines; in assay [1]) was 100 to 1000 nM throughout.

Consider `O=C(Cc1c[nH]c2ccccc12)Nc1cccc(-c2nn3ccccc3c2-c2ccnc(Nc3cccc(-c4cnco4)c3)n2)c1` [Example 18, 2-(1H-Indol-3-yl)-N-{3-[3-(2-{[3-(1,3-oxazol-5-yl)phenyl]amino}-4-pyrimidinyl)pyrazolo[1,5-a]pyridin-2-yl]phenyl}acetamide], for which the “Activity (Method)” value on ErbB2 or EGFR was “++ (B) (at least one pIC50 measurement greater than 6 against either ErbB2 or EGFR but no measurement greater than pIC50 of 7)”. Moreover, the IC50 is over 1000 nM in the assay on Colo205 tumor cell lines and 100 to 1000 nM in assay [1].

As for `Cc1cc(CC(=O)Nc2cccc(-c3nn4ccccc4c3-c3ccnc(Nc4cccc(-c5cnco5)c4)n3)c2)on1` [Example 19, 2-(3-Methyl-5-isoxazolyl)-N-{3-[3-(2-{[3-(1,3-oxazol-5-yl)phenyl]amino}-4-pyrimidinyl)pyrazolo[1,5-a]pyridin-2-yl]phenyl}acetamide], the “Activity (Method)” value at ErbB2 or EGFR was “+++ (B) (at least one pIC50 measurement of greater than 7 against either ErbB2 or EGFR)”. Further, the values for the IC50 (in the assay with Colo205 tumor cell lines; in assay [1]) were over 1000 nM and 100 to 1000 nM, respectively.

As to `O=C(Cc1c(F)cccc1F)Nc1cccc(-c2nn3ccccc3c2-c2ccnc(Nc3cccc(-c4cnco4)c3)n2)c1` [Example 20, 2-(2,6-Difluorophenyl)-N-{3-[3-(2-{[3-(1,3-oxazol-5-yl)phenyl]amino}-4-pyrimidinyl)pyrazolo[1,5-a]pyridin-2-yl]-phenyl}acetamide], at ErbB2 or EGFR, the “Activity (Method)” value is listed as “+++ (B) (at least one pIC50 measurement of greater than 7 against either ErbB2 or EGFR)”. Besides, the IC50 (in the assay with Colo205 tumor cell lines; in assay [1]) was 100 to 1000 nM throughout.

Take `O=C(Cc1cccnc1)Nc1cccc(-c2nn3ccccc3c2-c2ccnc(Nc3cccc(-c4cnco4)c3)n2)c1` [Example 21, N-{3-[3-(2-{[3-(1,3-Oxazol-5-yl)phenyl]amino}-4-pyrimidinyl)pyrazolo[1,5-a]pyridin-2-yl]phenyl}-2-(3-pyridinyl)acetamide]: the “Activity (Method)” value at ErbB2 or EGFR was “+++ (B) (at least one pIC50 measurement of greater than 7 against either ErbB2 or EGFR)”. For the same compound, the IC50 with Colo205 tumor cell lines is over 1000 nM; in assay [1] it was 100 to 1000 nM.

In the case of `O=C(Cc1ccncc1)Nc1cccc(-c2nn3ccccc3c2-c2ccnc(Nc3cccc(-c4cnco4)c3)n2)c1` [Example 22, N-{3-[3-(2-{[3-(1,3-Oxazol-5-yl)phenyl]amino}-4-pyrimidinyl)pyrazolo[1,5-a]pyridin-2-yl]phenyl}-2-(4-pyridinyl)acetamide], on ErbB2 or EGFR, the “Activity (Method)” value is listed as “+++ (B) (at least one pIC50 measurement of greater than 7 against either ErbB2 or EGFR)”. For the same compound, the IC50 (in the assay on Colo205 tumor cell lines; in assay [1]) was over 1000 nM throughout.

For `O=C(Cc1ccccn1)Nc1cccc(-c2nn3ccccc3c2-c2ccnc(Nc3cccc(-c4cnco4)c3)n2)c1` [Example 23, N-{3-[3-(2-{[3-(1,3-Oxazol-5-yl)phenyl]amino}-4-pyrimidinyl)pyrazolo[1,5-a]pyridin-2-yl]phenyl}-2-(2-pyridinyl)acetamide], on ErbB2 or EGFR, the “Activity (Method)” value is “+++ (B) (at least one pIC50 measurement of greater than 7 against either ErbB2 or EGFR)”. For the same compound, the IC50 (in the assay on Colo205 tumor cell lines; in assay [1]) was 100 to 1000 nM in each case.

As for `CN1CCc2ccc(Nc3nccc(-c4c(-c5cccc(NC(=O)Cc6cccs6)c5)nn5cccc(F)c45)n3)cc2C1` [Example 30, N-[3-(4-fluoro-3-{2-[(2-methyl-1,2,3,4-tetrahydro-7-isoquinolinyl)amino]-4-pyrimidinyl}pyrazolo[1,5-a]pyridin-2-yl)phenyl]-2-(2-thienyl)acetamide], the “Activity (Method)” value at ErbB2 or EGFR was “++ (B) (at least one pIC50 measurement greater than 6 against either ErbB2 or EGFR but no measurement greater than pIC50 of 7)”. Also, the IC50 (in the assay with Colo205 tumor cell lines; in assay [1]) was over 1000 nM each time.

As for `CN(C)CCOc1cccc(Nc2nccc(-c3c(-c4cccc(NC(=O)Cc5cccs5)c4)nn4cccc(F)c34)n2)c1` [Example 31, N-[3-(3-{2-[(3-{[2-(dimethylamino)ethyl]oxy}phenyl)amino]-4-pyrimidinyl}-4-fluoropyrazolo[1,5-a]pyridin-2-yl)phenyl]-2-(2-thienyl)acetamide], the “Activity (Method)” value on ErbB2 or EGFR is listed as “++ (B) (at least one pIC50 measurement greater than 6 against either ErbB2 or EGFR but no measurement greater than pIC50 of 7)”. In addition, the IC50 (in the assay on Colo205 tumor cell lines; in assay [1]) was over 1000 nM in each case.

Consider `O=C(Cc1cccs1)Nc1cccc(-c2nn3cccc(F)c3c2-c2ccnc(Nc3cccc(F)c3)n2)c1` [Example 32, N-[3-(4-fluoro-3-{2-[(3-fluorophenyl)amino]-4-pyrimidinyl}pyrazolo[1,5-a]pyridin-2-yl)phenyl]-2-(2-thienyl)acetamide], for which, on ErbB2 or EGFR, the “Activity (Method)” value is “+ (B) (no pIC50 measurement greater than 6 against either ErbB2 or EGFR)”. Besides, the IC50 (in the assay with Colo205 tumor cell lines; in assay [1]) was over 1000 nM each time.

As for `O=C(Cc1cccs1)Nc1cccc(-c2nn3cc(F)ccc3c2-c2ccnc(Nc3cccc(F)c3)n2)c1` [Example 33, N-[3-(6-fluoro-3-{2-[(3-fluorophenyl)amino]-4-pyrimidinyl}pyrazolo[1,5-a]pyridin-2-yl)phenyl]-2-(2-thienyl)acetamide], on ErbB2 or EGFR, the “Activity (Method)” value was “++ (B) (at least one pIC50 measurement greater than 6 against either ErbB2 or EGFR but no measurement greater than pIC50 of 7)”. For the same compound, the IC50 (with Colo205 tumor cell lines; in assay [1]) was over 1000 nM in each case.

As to `CN(C)CCOc1cccc(Nc2nccc(-c3c(-c4cccc(NC(=O)Cc5cccs5)c4)nn4cc(F)ccc34)n2)c1` [Example 34, N-[3-(3-{2-[(3-{[2-(dimethylamino)ethyl]oxy}phenyl)amino]-4-pyrimidinyl}-6-fluoropyrazolo[1,5-a]pyridin-2-yl)phenyl]-2-(2-thienyl)acetamide], the “Activity (Method)” value at ErbB2 or EGFR is listed as “+++ (B) (at least one pIC50 measurement of greater than 7 against either ErbB2 or EGFR)”. The IC50 (in the assay on Colo205 tumor cell lines; in assay [1]) was 100 to 1000 nM in each case.
